Series [1] concerns Aβ1-42-induced cognitive impairments. The series can be described thus: Open field test in Aβ1-42 Alzheimer's disease rat model. Type of series: in vivo, rats. Particulars: for number of entries into the center zone: 1 mg/kg i.v. daily 14 days, vs Aβ1-42 group; for total distance / traveling speed: open field, between the four groups. Here is the method: Aβ1-42 (Sigma-Aldrich, St. Louis, MO, USA;) was dissolved in double-distilled water at the concentration of 5 μg/μl, and incubated at 37° C. for one week before surgery. The rats were randomly divided into four groups as Sham (n=8), Sham+AG-1601 (n=8), Aβ1-42 (n=8) and Aβ1-42+AG-1601 (n=8). The Alzheimer's disease rat models were established by intracerebroventricular (i.c.v.) injection of Aβ1-42 aggregates. The animals were anesthetized with intraperitoneal injection of pentobarbital sodium (50 mg/kg) and placed in a stereotaxic apparatus (Narishige, Japan). The head skin of the rat was opened and two small holes were drilled on both sides of skull following the coordinates: 0.8 mm posterior to bregma, +1.4 mm lateral to sagittal suture, 4.0 mm beneath the surface of brain. Aβ1-42 (2.0 μl per side) was injected bilaterally into the lateral ventricles through micro-syringe. The needle was taken out after 5 minutes of the injection to ensure the aggregates were infused completely. Rats in the Sham group underwent the same operational process, but same volumes of double-distilled water were injected instead of Aβ1-42. After surgery, all rats were injected with penicillin (100,000 U) in the hindquarter muscle to prevent infection. The animals of Sham+AG-1601 and Aβ1-42+AG-1601 groups were intravenous injection with AG-1601 (1 mg/kg), while the same volume vehicle was implemented for the other groups every day for 14 days after one week of the postoperative recovery.
The open field test was carried out to evaluate locomotor activity and exploratory behavior. This test was conducted as described previously with little modifications (Sugita et al., 2015). The open field test consists of a circular apparatus (80 cm in diameter, 30 cm high). The circular apparatus was divided into the center zone (30 cm in diameter in the middle of the arena) and the concentric outer circle zone. Rats were placed individually in the outer circle of the apparatus and allowed to explore freely for 5 min. The path of each rat was tracked by a camera-driven tracker system (Ethovision2.0, Noldus, Wagenigen, Netherlands). The number of entries into the center zone, the total distance and the traveling speed during the testing were analyzed.

Another series deals with C6 glioma. In words: C6 intracranial glioma rat model. The format is in vivo, rats. The protocol:
SD male rate were intracranially injected with DMEM medium in 10 μl (sham and small plus AG-1601), and C6 cell at 1×10^6 in 10 μl (glioma and glioma plus AG-1601). C6 cells, a type of murine glioma cell lines, were injected into the right striatum in rats to induce glioma formation. C6 cells were cultured in DMEM containing 10% FBS. C6 cells were suspended in DMEM to implant in rats. Rats injected DMEM containing 10% FBS were grouped as Sham. Tumor formation continued for 7 days, followed by AG1601 was intravenous injected once a day for 6 days. Physical findings included: body weight/2d; effects on synaptic plasticity; electrophysiological tests of LTP and CA3-CA1; mechanism of the study (BDNF/TrkB signaling pathway); Western blot; Synaptic plasticity: BDNF/TrkB/PI3K/Akt/NMDA/PSD95/SYP; Tumor suppression: BDNF/TrkB/RAS/ERK/Bcl-2/Bax; Histology and immunohistochemical analysis; HE staining and immunohistochemistry staining; characterization of brain tumor (localization, size, and regions).

In the case of `C=CC1=C(C)c2cc3[nH]c(cc4nc(cc5[nH]c(cc1n2)c(C)c5C=C)C(C)=C4CCC(=O)O)c(CCC(=O)NCCCc1ccccc1)c3C` [AG-1601, 3-(2,8,13,18-tetramethyl-3-(3-oxo-3-((3-phenylpropyl)amino)propyl)-12,17-divinylporphyrin-7-yl)propanoic acid], in series [1], the “number of entries into the center zone” value was “increased dramatically”, the total distance entry is reported as “no significant effect” and the traveling speed entry is recorded as “no significant effect”. In addition, in series [1] (listed as AG-1061), the “number of entries into the center zone” value is reported as “increased significantly”, the total distance entry is “no significant difference” and the traveling speed entry was “no significant difference”. Further, the body weights entry in the series on C6 glioma (Glioma vs Glioma+AG1601, 2 weeks) is listed as “significant difference was found between them”. Further, in the series on C6 glioma (Glioma+AG1601 vs Glioma group), the tumor volumes result was “reduced” and the tumor weights entry is listed as “reduced”. For the same compound, in the series on C6 glioma (Sham vs Sham+AG1601, 2 weeks), the body weights entry is reported as “without significant difference”. Moreover, the survival time entry in the series on C6 glioma (glioma rats treated vs without treatment) is reported as “longer”. Also, the glioma growth result in the series with C6 glioma (i.v. once a day for 6 days) was “could suppress glioma growth”. Besides, in the series on C6 glioma (rat model), the “efficacy on C6 xenograft tumor” value is “shows efficacy”.
